# According to patent US4667032A, “Phenothiazone derivatives and analogs” (Merck Frosst Canada, Inc., priority 1985, dated 1987):
# How the values were obtained:
# [1] = system: Mouse peritoneal macrophages; assay: Mouse Macrophage Assay (leukotriene C4 / PGE2 / 6-keto PGF1α formation, zymosan stimulated); type: cell-based; conditions: at 0.05 mg/ml, read-out: Macrophage, % at stated concentration
# Method: Mouse peritoneal macrophages were treated sequentially with arachidonic acid (labelled with tritium); the compound being evaluated as an inhibitor, and a stimulator (zymosan). Metabolites derived from arachidonic acid PGE2 6-keto PH-F1α and leukotriene C4) were separated from the incubation medium by extraction and chromatography, and then quantitated by determining the amount of radioactivity (cpm) associated with each of them. […] (This protocol is identical to that described in the reference except that the radioactivity herein associated with the LTC4 was determined by counting an aliquot of the final aqueous solution directly rather than chromatographing it first).
# Reference: Humes, J. L. et al., J. Biol. Chem. 257, 1591-4, (1982).
# [2] = system: tracheal chain of sensitized guinea pigs; assay: Antigen Challenge 'in vitro' Assay (egg albumin contraction of sensitized guinea pig tracheal chain); conditions: Table 4
# [3] = system: tracheal chain of sensitized guinea pigs; assay: as above; conditions: 10 μg (μg/ml)
# Method: Male guinea pigs weighing 300-350 g were sensitized by injecting (I.P.) 0.5 ml of a suspension containing 0.4 mg of egg albumin (Ovalbumin, Grade V, Sigma Chemical Co.) and 4.0 g aluminum hydroxide in 19.6 ml of saline. Two weeks were permitted for sensitization to occur.
# Three sensitized guinea pigs were stunned and exsanguinated. The tracheas were removed, freed of adhering tissue and divided longitudinally by cutting through the cartilaginous tissue directly opposite the muscle insertion. Each opened trachea was then transected between every second cartilage. Four of the cut sections were tied together, end to end, in a series with No. 7 silk thread ensuring that the tracheal muscles were all in the same vertical plane. Thus, each chain consisted of tissue from three different animals.
# The chain so formed was then suspended under 1 g of tension (by silk ties at each end) in a 20 ml organ bath containing 10 ml of modified* Krebs-Henseleit buffer solution gassed with 95% O2 and 5% CO2 at 37° C. Mepyramine (0.55 μg/ml) and indomethacin (2.67 μg/ml) were added to the buffer to avoid the contribution of histamine receptors and cyclooxygenase products to the contraction. To record responses one end of the tracheal chain was attached to a Gould-Statham UC-2 force displacement transducer which was connected to a Beckman Type R-dynograph.The preparations were allowed to equilibrate for one hour during which time the tissues were automatically washed (10 ml volume displacement) every 6 minutes.
# After the equilibration period the tissues were primed with methacholine (3 μg/ml; 1.5×10^-5 M), washed and allowed to recover to baseline. The tissues were treated again with a second dose of methacholine, washed, allowed to return to baseline and washed for an additional hour.
# Two chains were used as a control. These were incubated in a concentration of egg albumin sufficient to induce an average contraction of 50-80% of the methacholine response.
# Each compound to be tested was added to two other baths (at a final concentration in each bath of 10 μg/ml) 15 minutes prior to challenging the fresh chains with egg albumin.
# The response of the challenged tissue was expressed as a percentage of the methacholine maximum. The % inhibition for each compound was then calculated. Compounds which at 10 μg/ml (final conc.) inhibited the egg albumin response by 50% or more were retested at a lower concentration.
# asthmatic rats = assay: Asthmatic Rat Assay (duration of dyspnoea after egg albumin aerosol); type: in vivo; conditions: for ED50: Rattus norvegicus; for % inhibition (Ed50 column): p.o.
# Text: Rats were obtained from an inbred line of asthmatic rats. Both female and male rats from 200 to 300 g were used.
# Egg albumin (EA), grade V, crystallized and lyophilized, was obtained from Sigma Chemical Co., St. Louis. Bordetella pertussis vaccine, containing 30×10^9 killed bacteria per ml was obtained from the Institut Armand-Frappier, Laval des Rapides, Quebec. Aluminum hydroxide was obtained from the Regis Chemical Company, Chicago.
# The challenge and subsequent respiratory recordings were carried out in a clear plastic box with internal dimensions 10×6×4 inches. The top of the box was removable; in use, it was held firmly in place by four clamps and an airtight seal was maintained by a soft rubber gasket. […] A Fleisch No. 0000 pneumotachograph was inserted into one end of the box and coupled to a Grass volumetric pressure transducer (PT5-A) which was then connected to a Beckman Type T Dynograph through appropriate couplers. While aerosolizing the antigen, the outlets were open and the pneumotachograph was isolated from the chamber. The outlets were closed and the pneumotachograph and the chamber were connected during the recording or the respiratory patterns. For challenge, 2 ml of a 3% solution of antigen in saline was placed into each nebulizer and the aerosol was generated with air from a small Potter diaphragm pump operating at 10 psi and a flow of 8 liters/minute.
# Rats were sensitized by injecting (s.c.) 1 ml of a suspension containing 1 mg EA and 200 mg aluminum hydroxide in saline. Simultaneously, they received an injection (i.p.) of 0.5 ml of B. pertussis vaccine. They were used between days 14 and 18 postsensitization. In order to eliminate the serotonin component of the response, rats were pretreated intravenously 5 minutes prior to aerosol challenge with […] methylserzide. Rats were then exposed to an aerosol of 3% EA in saline for exactly 1 minute, then their respiratory profiles were recorded for a further 25-30 minutes. The duration of continuous dyspnoea was measured from the respiratory recordings.
# Compounds were generally administered either intraperitoneally 1 hour prior to challenge or orally 11/2 hours prior to challenge. They were either dissolved in dimethylsulfoxide or suspended in 0.1% methocel and 0.5% Tween 80. The volume injected has 2 ml/kg (intraperitoneally) or 10 ml/kg (orally). Prior to oral treatment rats were starved overnight. Their activity was determined in terms of their ability to decrease the duration of symptoms of dyspnoea in comparison with a group of vehicle-treated controls. Usually, a compound was evaluated at a series of doses and an ED50 was determined. This was defined as the dose (mg/kg) which would inhibit the duration of symptoms by 50%.
# [4] = system: rat paw, PAF-induced hyperalgesia; assay: PAF-Induced Hyperalgesia Assay; type: in vivo, Female Sprague-Dawley rats; conditions: for Vocalization Threshold: 3 hr after PAF, Mean ± S.E.M., n = 10
# Method: Female Sprague-Dawley rats, 35-40 g were fasted overnight. Platelet activating factor, PAF, (L-lecithin B-acetyl O-alkyl) 1 μg/0.1 ml was given by subplantar injection in the rat paw. The compounds to be evaluated were homogenized in Aqueous Vehicle (0.9% benzyl alcohol, 0.5% Tween 80 and 0.4% methylcellulose) and administered orally in a volume of 0.1 ml, 30 minutes prior to PAF.
# Animals were tested 1, 2, 3 and 4 hours after PAF administration. The vocalization threshold, defined as the pressure (mmHg) needed to evoke a squeak response, was recorded for both the injected and contralateral paw. No animal was subjected to pressure greater than 60 mmHg. Hyperalgesia is defined as a decrease in vocalization threshold as compared to a normal paw. Percent inhibition of hyperalgesia was calculated as the proportion of animals with vocalization thresholds greater than 200% of controls.
# ^a mmHg Mean ± S.E.M., n = 10 Reading taken 3 hr after injection o
# PAF, (3.5 hr. after administration of compound).
# [5] = system: rat paw, Brewer's yeast hyperalgesia; assay: Brewer's Yeast Hyperalgesia Assay; type: in vivo, Female Sprague-Dawley rats; conditions: for Vocalization Threshold: mean, n = 10
# Method: The standard method* for yeast hyperalgesia was used. Female Sprague-Dawleyrats, […] were fasted overnight. A 5% solution (volume 0.1 ml) of Brewer's yeast was injected into the rat paw. The compound was homogenized in aqueous vehicle and given orally 2 hours after yeast. Vocalization thresholds were recorded 1 hours after drug (3 hours after yeast).
# ^a mmHg: mean ± S.E.M. n = 10
compound,measurement,setting,value
Cc1cc2nc3ccc(N(C)C)cc3sc-2cc1=N,inhibition at 50 µg/mL,[1],10%
same,In Vitro Antigen Challenge Test % Inhibition,[2]; 10 mg (mg/ml),24%
"4-Chloro-2,7-dimethoxy-3H-phenothiazin-3-one [Example 3]",In Vitro Antigen Challenge Test % Inhibition,[3],25%
"4-Chloro-2,7-dimethyl-3H-phenothiazin-3-one [Example 5]",In Vitro Antigen Challenge Test % Inhibition,[3],45%
4-Chloro-7-methyl-3H-phenothiazin-3-one [Example 7],In Vitro Antigen Challenge Test % Inhibition,[2]; 10 mg (mg/ml),37%
7-Fluoro-2-methoxy-3H-phenothiazin-3-one [Example 13],In Vitro Antigen Challenge Test % Inhibition,[2]; 3 mg (mg/ml),54%
7-Fluoro-3H-phenothiazin-3-oone [Example 11],In Vitro Antigen Challenge Test % Inhibition,[2]; 3 mg (mg/ml),23%
O=c1ccc2nc3ccccc3sc-2c1Cl [B],ED50,asthmatic rats; po,1.5 mg/kg
O=c1ccc2nc3ccccc3sc-2c1 [C],ED50,asthmatic rats; ip,~5 mg/kg
COc1ccc2nc3cc(OC)c(=O)c(Br)c-3sc2c1 [D],ED50,asthmatic rats; po,1 mg/kg
O=C1C=CC2=Nc3ccccc3S(=O)(=O)C2=C1O [E],% inhibition (Ed50 column),asthmatic rats; at 1.5 mg/kg,37%
"O=c1ccc2nc3ccccc3sc-2c1Cl [Example 2, 4-Chloro-3H-phenothiazin-3-one]",% Inhibition,"[4]; Experiment 1, 0.01 mg/kg p.o.",40%
same,Vocalization Threshold,"[4]; Experiment 1, 0.01 mg/kg p.o.",28.2 ± 5.2 mmHg
same,% Inhibition,"[4]; Experiment 1, 0.03 mg/kg p.o.",80%
same,Vocalization Threshold,"[4]; Experiment 1, 0.03 mg/kg p.o.",40.2 ± 5.0 mmHg
same,% Inhibition,"[4]; Experiment 1, 0.1 mg/kg p.o.",80%
same,Vocalization Threshold,"[4]; Experiment 1, 0.1 mg/kg p.o.",37.4 ± 3.9 mmHg
same,% Inhibition,"[4]; Experiment 1, 0.3 mg/kg p.o.",90%
same,Vocalization Threshold,"[4]; Experiment 1, 0.3 mg/kg p.o.",45.4 ± 3.7 mmHg
same,% Inhibition,"[4]; Experiment 1, 3.0 mg/kg p.o.",100%
same,Vocalization Threshold,"[4]; Experiment 1, 3.0 mg/kg p.o.",46.0 ± 3.0 mmHg
same,% Inhibition,"[4]; Experiment 2, 0.001 mg/kg p.o.",0%
same,Vocalization Threshold,"[4]; Experiment 2, 0.001 mg/kg p.o.",10.0 ± 1.6 mmHg
same,% Inhibition,"[4]; Experiment 2, 0.003 mg/kg p.o.",30%
same,Vocalization Threshold,"[4]; Experiment 2, 0.003 mg/kg p.o.",16.4 ± 2.8 mmHg
same,% Inhibition,"[4]; Experiment 2, 0.01 mg/kg p.o.",30%
same,Vocalization Threshold,"[4]; Experiment 2, 0.01 mg/kg p.o.",18.0 ± 2.9 mmHg
same,% Inhibition,"[4]; Experiment 2, 0.1 mg/kg p.o.",60%
same,Vocalization Threshold,"[4]; Experiment 2, 0.1 mg/kg p.o.",29.6 ± 4.4 mmHg
same,% Inhibition,[5]; 0.3 mg/kg p.o.,30%
same,Vocalization Threshold,[5]; 0.3 mg/kg p.o.,17.6 mmHg
same,% Inhibition,[5]; 1.0 mg/kg p.o.,30%
same,Vocalization Threshold,[5]; 1.0 mg/kg p.o.,19.4 mmHg
same,% Inhibition,[5]; 3.0 mg/kg p.o.,60%
same,Vocalization Threshold,[5]; 3.0 mg/kg p.o.,30.0 mmHg
same,% Inhibition,[5]; 10.0 mg/kg p.o.,70%
same,Vocalization Threshold,[5]; 10.0 mg/kg p.o.,28.6 mmHg
same,% Inhibition,[5]; 30.0 mg/kg p.o.,80%
same,Vocalization Threshold,[5]; 30.0 mg/kg p.o.,32.6 mmHg
O=c1cc2sc3ccccc3nc-2c2ccccc12 [F],% inhibition (Ed50 column),asthmatic rats; at 5 mg/kg,36%
O=c1ccc2nc3ccccc3sc-2c1Cl [drawing 40],ED50,asthmatic rats; ip,0.5 mg/kg
